According to patent US11773108B2, “Indene derivatives useful in treating pain and inflammation” (TARO PHARMACEUTICALS INC., priority 2018, dated 2023):

Key:
[1] = Metabolism by human liver microsomes; assay type: in vitro ADME; conditions: 10 μM, in the presence of NADPH; for Scoring: % of drug remaining after 60 minutes (PDR60): human liver microsomes 1 mg/mL protein, LC-MS/MS
Procedure: Representative compounds of the invention (i.e., test compounds) and the positive control, 7-ethoxycoumarin, were prepared as stock solutions at 10 mM in DMSO and eventually diluted to 10 μM in the test plate, with an appropriate amount of acetonitrile and tris HCl buffer. Final DMSO and acetonitrile concentrations were […] and 0.5% respectively. NADPH was prepared in tris HCl buffer to a stock of 10 mM. A frozen aliquot of liver microsomes was retrieved from the freezer (−80° C.) and thawed by placing the tube on wet ice. After thawing, the tubes were gently mixed and the required amount, transferred to tris HCl buffer. Test compounds or positive control were pre-incubated, separately, for 10 minutes, with liver microsomes (1 mg/mL protein), at 37° C., in 100 mM Tris HCl at pH 7.5. After preincubation the reaction was started by adding 1 mM NADPH (pre-equilibrated to 30° C.) and the reaction allowed to proceed for 60 minutes. At 60 minutes, a 50 μL aliquot was removed and quenched with 200 uL of acetonitrile containing a mixture of internal standards (Tolbutamide (500 ng/mL) and Telmistartan (500 ng/mL)) and vortexed then centrifuged at 4000 rpm for 10 minutes (Eppendorf 5810R). The supernatant was transferred to a 96 well plate for LC-MS/MS analysis.
An LC-MS/MS method was devised for the test compounds and the control, using a AB Sciex API 4000 system coupled to a NEXAR™ UHPLC (Shimadzu) system. Analytes were separated on a Phenomenex Kinetex C18 column (50×2.1 mm, 5 μm) using a gradient that was appropriate for each compound, at a flow rate of 1 ml/minute, utilizing a mobile phase of 0.1% formic acid in MILLI-Q™ water (A) and 0.1% formic acid in acetonitrile (B). The MS instrument was operated in positive mode (ESI+)/negative (ESI−). The multiple reaction monitoring (MRM) transition for test and control compounds was used for the LC-MS/MS analysis. MRM transitions for control compound 7-ethoxycoumarinm were Quadropole 1: 191.0, Quadropole 3:163.0, dwell time: 75 msec, using curtain gas settings of 5 V, ion-spray voltage of 5500 V, temperature of 50° C. and gas settings for nebulizer and auxiliary set to 30 and 40 psi, respectively. The interface heater was kept on. Entrance potential and collision cell exit potential were varied to tune for a specific compound.
Using a suitable LC-MS/MS method, the percentage of drug remaining at 60 minutes ([…]) was assessed by comparing the average analyte to internal standard area ratio at 60 minutes to the average analyte to internal standard area ratio at 0 time control, as a percentage, from a 5 to 10 μL sample injection.
According to the above assay, the test compounds listed in Table 7 below were active in the Human liver microsome assay at 10 μM and the % of drug remaining after 60 minutes (PDR60), in the presence of NADPH, was assessed by LC-MS/MS. Average PDR60 for the standard compound, 7-ethoxycoumarin was <=65% in the presence of NADPH. Scoring for the test compounds, in the presence of NADPH, was as follows: “A” represents a PDR60 of 81 to 100%, “B” represents a PDR60 of 61 to 80%, “C” represents a PDR60 of 31 to 60% and “D” represents a PDR60 of 0 to 30%.

[2] = tested on: rat dorsal root ganglion (DRG) cells; test: Rat dorsal root ganglion (DRG) excitability response to electrical field stimulation; assay type: cell-based; conditions: adult rat DRG cells, Ca5 Ca2+ indicator, six concentrations, highest typically 30 μM, read-out: Scoring: EC50, modulation of rat DRG excitability
Procedure: Rat Dorsal Root Ganglion Excitability Response of Representative Compounds Dorsal root ganglions (DRGs) were dissected from adult rats. The tissue was processed, and cells were seeded into cell culture plates (48 center wells of one quadrant in 384-well plates) and cultured for 2 days prior to Electrical field stimulation (EFS). To visualize the neuronal excitability response, intracellular Ca^+2 transients were monitored using the Ca^+2 indicator, Ca5. Ca5 was added to the cultures 1 h prior to EFS. Representative compounds of the invention (i.e., test compounds) and reference compound, tetracaine, were added in concentration-response format encompassing six concentrations, performed in duplicate. The highest concentration tested was typically 30 μM with 1 in 3 dilutions generating the subsequent concentrations.
Effects on DRG excitability by the test compounds and standard were evaluated using four EFS protocols as disclosed in Table 2.
Experimental results were performed using two seperate sets of plates using separate test compound and standard dilutions, to provide n=2. In the first set of experiments, compounds were added 24 h prior to EFS to increase the possibility to also detect more long-term compound effects. In the second set of experiments the compounds were added directly prior to EFS. Excitability response to EFS was analyzed as the average fluorescence ratio (peak/baseline) change per well. All plates were evaluated using high content imaging equipment post-EFS, imaging the Ca5 background staining to detect any possibile compound-related toxic effects.
Average response by the reference compound, tetracaine, was 4.05 μM.

| Structure (SMILES) | Scoring: % of drug remaining after 60 minutes (PDR60) [1] | also measured |
| --- | --- | --- |
| CCOc1ccc2ccc(=O)oc2c1 [7-ethoxycoumarin, reference compound] | – | Average PDR60 ([1]; standard compound, human liver microsomes, 60 minutes): <= 65% |
| C[C@]1([C@H]2CC[C@]3(C)C(c4ccccc4)=CC[C@H]3[C@@H]2CN)Cc2cn[nH]c2C[C@@H]1CO [Ia-6, ((5R,6S)-5-((3aS,6S,7R,7aS)-7-(aminomethyl)-3a-methyl-3-phenyl-3a,4,5,6,7,7a-hexahydro-1H-inden-6-yl)-5-methyl-4,5,6,7-tetrahydro-1H-indazol-6-yl)methanol] | A (“A” represents a PDR60 of 81 to 100%) | – |
| C[C@]1([C@H]2CC[C@]3(C)c4[nH]ncc4C[C@H]3[C@@H]2CN)Cc2cn[nH]c2C[C@@H]1CO [Ia-7, ((5R,6S)-5-((4aS,5R,6S,8aS)-5-(aminomethyl)-8a-methyl-1,4,4a,5,6,7,8,8a-octahydroindeno[1,2-c]pyrazol-6-yl)-5-methyl-4,5,6,7-tetrahydro-1H-indazol-6-yl)methanol] | B (“B” represents a PDR60 of 61 to 80%) | – |
| C=C1CC[C@H]2[C@H](CN)[C@@H]([C@@]3(C)Cc4cn(-c5ccc(F)cc5)nc4C[C@@H]3CO)CC[C@]12C [Ia-13, ((5R,6S)-5-((3aS,4R,5S,7aS)-4-(aminomethyl)-7a-methyl-1-methyleneoctahydro-1H-inden-5-yl)-2-(4-fluorophenyl)-5-methyl-4,5,6,7-tetrahydro-2H-indazol-6-yl)methanol] | A (“A” represents a PDR60 of 81 to 100%) | – |
| C=C1CC[C@H]2[C@H](CN)[C@@H]([C@@]3(C)Cc4cnn(Cc5ccc(F)cc5)c4C[C@@H]3CO)CC[C@]12C [Ia-18, ((5R,6S)-5-((3aS,4R,5S,7aS)-4-(aminomethyl)-7a-methyl-1-methyleneoctahydro-1H-inden-5-yl)-1-(4-fluorobenzyl)-5-methyl-4,5,6,7-tetrahydro-1H-indazol-6-yl)methanol] | – | EC50 [2]: < 2000 nM |
| C=C1CC[C@H]2[C@H](CN)[C@@H]([C@@]3(C)Cc4cn(Cc5ccc(F)cc5)nc4C[C@@H]3CO)CC[C@]12C [Ia-19, ((5R,6S)-5-((3aS,4R,5S,7aS)-4-(aminomethyl)-7a-methyl-1-methyleneoctahydro-1H-inden-5-yl)-2-(4-fluorobenzyl)-5-methyl-4,5,6,7-tetrahydro-2H-indazol-6-yl)methanol] | B (“B” represents a PDR60 of 61 to 80%) | – |
| C=C1CC[C@H]2[C@H](CN)[C@@H]([C@@]3(C)Cc4cn(-c5ccc(F)c(F)c5)nc4C[C@@H]3CO)CC[C@]12C [Ia-23, ((5R,6S)-5-((3aS,4R,5S,7aS)-4-(aminomethyl)-7a-methyl-1-methyleneoctahydro-1H-inden-5-yl)-2-(3,4-difluorophenyl)-5-methyl-4,5,6,7-tetrahydro-2H-indazol-6-yl)methanol] | C (“C” represents a PDR60 of 31 to 60%) | – |
| C=C1CC[C@H]2[C@H](CN)[C@@H]([C@@]3(C)Cc4cn(-c5ccc(Oc6ccc(F)cc6)cc5)nc4C[C@@H]3CO)CC[C@]12C [Ia-25, ((5R,6S)-5-((3aS,4R,5S,7aS)-4-(aminomethyl)-7a-methyl-1-methyleneoctahydro-1H-inden-5-yl)-2-(4-(4-fluorophenoxy)phenyl)-5-methyl-4,5,6,7-tetrahydro-2H-indazol-6-yl)methanol] | B (“B” represents a PDR60 of 61 to 80%) | – |
| C=C1CC[C@H]2[C@H](CN)[C@@H]([C@@]3(C)Cc4cn(C5CCC(F)(F)CC5)nc4C[C@@H]3CO)CC[C@]12C [Ia-39, ((5R,6S)-5-((3aS,4R,5S,7aS)-4-(aminomethyl)-7a-methyl-1-methyleneoctahydro-1H-inden-5-yl)-2-(4,4-difluorocyclohexyl)-5-methyl-4,5,6,7-tetrahydro-2H-indazol-6-yl)methanol] | A (“A” represents a PDR60 of 81 to 100%) | – |

The next lines start with results.

| Scoring: % of drug remaining after 60 minutes (PDR60) [1] | Structure (SMILES) | also measured |
| --- | --- | --- |
| D (“D” represents a PDR60 of 0 to 30%) | C=C1CC[C@H]2[C@H](CN)[C@@H]([C@@]3(C)Cc4cnn(-c5ccc(OC)cc5)c4C[C@@H]3CO)CC[C@]12C [Ia-14, ((5R,6S)-5-((3aS,4R,5S,7aS)-4-(aminomethyl)-7a-methyl-1-methyleneoctahydro-1H-inden-5-yl)-1-(4-methoxyphenyl)-5-methyl-4,5,6,7-tetrahydro-1H-indazol-6-yl)methanol] | – |
| C (“C” represents a PDR60 of 31 to 60%) | C=C1CC[C@H]2[C@H](CN)[C@@H]([C@@]3(C)Cc4cn(Cc5ccc(OC)cc5)nc4C[C@@H]3CO)CC[C@]12C [Ia-17, ((5R,6S)-5-((3aS,4R,5S,7aS)-4-(aminomethyl)-7a-methyl-1-methyleneoctahydro-1H-inden-5-yl)-2-(4-methoxybenzyl)-5-methyl-4,5,6,7-tetrahydro-2H-indazol-6-yl)methanol] | – |
| D (“D” represents a PDR60 of 0 to 30%) | C=C1CC[C@H]2[C@H](CN)[C@@H]([C@@]3(C)Cc4cnn(-c5ccc(F)cn5)c4C[C@@H]3CO)CC[C@]12C [Ia-30, ((5R,6S)-5-((3aS,4R,5S,7aS)-4-(aminomethyl)-7a-methyl-1-methyleneoctahydro-1H-inden-5-yl)-1-(5-fluoropyridin-2-yl)-5-methyl-4,5,6,7-tetrahydro-1H-indazol-6-yl)methanol] | – |
| D (“D” represents a PDR60 of 0 to 30%) | C=C1CC[C@H]2[C@H](CN)[C@@H]([C@@]3(C)Cc4cnn(-c5ccccc5F)c4C[C@@H]3CO)CC[C@]12C [Ia-32, ((5R,6S)-5-((3aS,4R,5S,7aS)-4-(aminomethyl)-7a-methyl-1-methyleneoctahydro-1H-inden-5-yl)-1-(2-fluorophenyl)-5-methyl-4,5,6,7-tetrahydro-1H-indazol-6-yl)methanol] | – |
| D (“D” represents a PDR60 of 0 to 30%) | C=C1CC[C@H]2[C@H](CN)[C@@H]([C@@]3(C)Cc4cnn(-c5ccc(F)cc5F)c4C[C@@H]3CO)CC[C@]12C [Ia-34, ((5R,6S)-5-((3aS,4R,5S,7aS)-4-(aminomethyl)-7a-methyl-1-methyleneoctahydro-1H-inden-5-yl)-1-(2,4-difluorophenyl)-5-methyl-4,5,6,7-tetrahydro-1H-indazol-6-yl)methanol] | – |
| D (“D” represents a PDR60 of 0 to 30%) | C=C1CC[C@H]2[C@H](CN)[C@@H]([C@@]3(C)Cc4cnn(-c5cccc(F)c5)c4C[C@@H]3CO)CC[C@]12C [Ia-40, ((5R,6S)-5-((3aS,4R,5S,7aS)-4-(aminomethyl)-7a-methyl-1-methyleneoctahydro-1H-inden-5-yl)-1-(3-fluorophenyl)-5-methyl-4,5,6,7-tetrahydro-1H-indazol-6-yl)methanol] | – |
| D (“D” represents a PDR60 of 0 to 30%) | COc1ccc(-n2ncc3c2C[C@H](CO)[C@@](C)([C@H]2CC[C@]4(C)[C@@H](C)CC[C@H]4[C@@H]2CN)C3)cc1 [Ia-49, ((5R,6S)-5-((1S,3aS,4S,5S,7aR)-4-(aminomethyl)-1,7a-dimethyloctahydro-1H-inden-5-yl)-1-(4-methoxyphenyl)-5-methyl-4,5,6,7-tetrahydro-1H-indazol-6-yl)methanol] | – |
